Test results published in ChEMBL document CHEMBL1201862, “PubChem BioAssay data set” (2004).
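96-well plates; 48 h exposure; 5 concentrations. Endpoints by linear interpolation between flanking doses. Not reached: highest tested concentration assigned. GI50: concentration for 50% inhibition of growth.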 The source made the active and inactive calls. No stated cut-off is given here; in the data, active = GI50 up to about 1.1 µM and inactive = higher.

Columns and labels:
Experiment in all cases: NCI anticancer screen, dose series, 48 h
[1] = tested on: A549
[2] = tested on: COLO 205
[3] = tested on: EKVX
[4] = tested on: HCC 2998
[5] = tested on: HL-60
[6] = tested on: IGROV-1
[7] = tested on: KM-20L2
[8] = tested on: LXFL 529
[9] = tested on: M14
[10] = tested on: MOLT-4
[11] = tested on: NCI-H23
[12] = tested on: OVCAR-8
[13] = tested on: RXF 393
[14] = tested on: SF-268
[15] = tested on: SF-539
[16] = tested on: SK-MEL-28
[17] = tested on: SK-MEL-2
[18] = tested on: SNB-19
[19] = tested on: SNB-75
[20] = tested on: TK-10

For `Cc1cc(O)nc(NN2C(Cl)C(=O)C2c2ccc([N+](=O)[O-])cc2)n1` (stereo not given), the GI50 [1] was 14.7 µM (inactive), the GI50 [2] was 18.6 µM (inactive) and the GI50 [3] was 23 µM (inactive). For the same compound, the GI50 [4] was 15.3 µM (inactive), the GI50 [5] was 4.12 µM (inactive) and the GI50 [6] was 4.03 µM (inactive). For the same compound, the GI50 [7] was 17.1 µM (inactive), the GI50 [8] was 7.67 µM (inactive) and the GI50 [9] was 11 µM (inactive). The GI50 [10] was 8.13 µM (inactive), the GI50 [11] was 7.18 µM (inactive) and the GI50 [12] was 17.8 µM (inactive). For the same compound, the GI50 [13] was 0.76 µM (active), the GI50 [14] was 13.1 µM (inactive) and the GI50 [15] was 10.8 µM (inactive). The GI50 [16] was 11.9 µM (inactive), the GI50 [17] was 6.07 µM (inactive) and the GI50 [18] was 15.3 µM (inactive). For the same compound, the GI50 [19] was 2.58 µM (inactive) and the GI50 [20] was 15.8 µM (inactive).
